Patent US8133847B2, “Pyrido[2,3-B]pyrazine derivatives useful as herbicidal compounds” (Syngenta Limited, priority 2006, dated 2012)

Columns and labels:
Experiment in all cases: Example B1 herbicidal action, post-emergence, 96-cell seed trays, climatic chamber
Format in all cases: in vivo
[1] = tested on: Amaranthus retroflexus (AMARE); details: Application post-emergence, 1000 mg/l spray equivalent to 1000 g/ha, evaluated after 9 days
Protocol: (§1) Seeds of a variety of test species were sown in sterilised standard soil in seed trays each having 96 cells. After cultivation for 8 to 9 days cultivation (post-emergence) under controlled conditions in a climatic chamber (cultivation at 23/17° C., day/night; 13 hours light; 50-60% humidity), the plants were treated with an aqueous spray solution of 1000 mg/l of the active ingredient dissolved in 10% DMSO (dimethyl sulfoxide, CAS RN 67-68-5) as a solvent, equivalent to 1000 g/ha. The plants were grown in the climatic chamber after application at (24/19° C., day/night; 13 hours light; 50-60% humidity) and watered twice daily. After 9 days until the test was evaluated (100=total damage to plant, 0=no damage to plant)

[2] = tested on: Solanum nigrum (SOLNI); details: Application post-emergence, 1000 mg/l spray equivalent to 1000 g/ha, evaluated after 9 days (100=total damage to plant, 0=no damage to plant)
Protocol: as §1

[3] = tested on: Stellaria media (STEME); details: Application post-emergence, 1000 mg/l spray equivalent to 1000 g/ha, evaluated after 9 days (100=total damage to plant, 0=no damage to plant)
Protocol: as §1

[4] = tested on: Nasturtium officinale (NAAOF); design: scale not given here; details: Application post-emergence, 1000 mg/l spray equivalent to 1000 g/ha, evaluated after 9 days (100=total damage to plant, 0=no damage to plant)
Protocol: as §1

CCC(=O)Oc1c(-c2c(Cl)cccc2Cl)c(=O)n(CC)c2nccnc12 [Compound C31]
damage to plant, Amaranthus retroflexus (AMARE) [1]: 8
damage to plant, Solanum nigrum (SOLNI) [2]: 4
damage to plant, Stellaria media (STEME) [3]: 8
damage to plant, Nasturtium officinale (NAAOF) [4]: 8

CCC(=O)Oc1c(-c2c(Cl)cccc2Cl)c(=O)n(C)c2nccnc12 [Compound C32]
damage to plant, Amaranthus retroflexus (AMARE) [1]: 8
damage to plant, Solanum nigrum (SOLNI) [2]: 2
damage to plant, Stellaria media (STEME) [3]: 8
damage to plant, Nasturtium officinale (NAAOF) [4]: 8

CC(=O)Oc1c(-c2c(Cl)cccc2Cl)c(=O)n(C)c2nccnc12 [Compound C33]
damage to plant, Amaranthus retroflexus (AMARE) [1]: 3
damage to plant, Solanum nigrum (SOLNI) [2]: 6
damage to plant, Stellaria media (STEME) [3]: 6
damage to plant, Nasturtium officinale (NAAOF) [4]: 7

CCC(=O)Oc1c(-c2c(Cl)cccc2Cl)c(=O)n(CCOC)c2nccnc12 [Compound C34]
damage to plant, Amaranthus retroflexus (AMARE) [1]: 2
damage to plant, Solanum nigrum (SOLNI) [2]: 0
damage to plant, Stellaria media (STEME) [3]: 6
damage to plant, Nasturtium officinale (NAAOF) [4]: 5

C/C=C/C(=O)Oc1c(-c2c(Cl)cccc2Cl)c(=O)n(C)c2nccnc12 [Compound C35]
damage to plant, Amaranthus retroflexus (AMARE) [1]: 2
damage to plant, Solanum nigrum (SOLNI) [2]: 0
damage to plant, Stellaria media (STEME) [3]: 7
damage to plant, Nasturtium officinale (NAAOF) [4]: 7

CCOC(=O)Oc1c(-c2c(Cl)cccc2Cl)c(=O)n(C)c2nccnc12 [Compound C36]
damage to plant, Amaranthus retroflexus (AMARE) [1]: 5
damage to plant, Solanum nigrum (SOLNI) [2]: 6
damage to plant, Stellaria media (STEME) [3]: 5
damage to plant, Nasturtium officinale (NAAOF) [4]: 7

Cn1c(=O)c(-c2c(Cl)cccc2Cl)c(OC(=O)C(C)(C)C)c2nccnc21 [Compound C37]
damage to plant, Amaranthus retroflexus (AMARE) [1]: 5
damage to plant, Solanum nigrum (SOLNI) [2]: 6
damage to plant, Stellaria media (STEME) [3]: 5
damage to plant, Nasturtium officinale (NAAOF) [4]: 7

CCCC(=O)Oc1c(-c2c(Cl)cccc2Cl)c(=O)n(C)c2nccnc12 [Compound C38]
damage to plant, Amaranthus retroflexus (AMARE) [1]: 5
damage to plant, Solanum nigrum (SOLNI) [2]: 7
damage to plant, Stellaria media (STEME) [3]: 7
damage to plant, Nasturtium officinale (NAAOF) [4]: 7

C=CCn1c(=O)c(-c2c(Cl)cccc2Cl)c(OC(=O)OCC)c2nccnc21 [Compound C39]
damage to plant, Amaranthus retroflexus (AMARE) [1]: 7
damage to plant, Solanum nigrum (SOLNI) [2]: 7
damage to plant, Stellaria media (STEME) [3]: 6
damage to plant, Nasturtium officinale (NAAOF) [4]: 6

CCCCn1c(=O)c(-c2c(Cl)cccc2Cl)c(OC(C)=O)c2nccnc21 [Compound C40]
damage to plant, Amaranthus retroflexus (AMARE) [1]: 3
damage to plant, Solanum nigrum (SOLNI) [2]: 2
damage to plant, Stellaria media (STEME) [3]: 2
damage to plant, Nasturtium officinale (NAAOF) [4]: 2

CCn1c(=O)c(-c2c(Cl)cccc2Cl)c(OC(=O)C(C)(C)C)c2nccnc21 [Compound C41]
damage to plant, Amaranthus retroflexus (AMARE) [1]: 2
damage to plant, Solanum nigrum (SOLNI) [2]: 0
damage to plant, Stellaria media (STEME) [3]: 2
damage to plant, Nasturtium officinale (NAAOF) [4]: 2

CC(=O)Oc1c(-c2ccc(Cl)cc2Cl)c(=O)n(C)c2nccnc12 [Compound C43]
damage to plant, Amaranthus retroflexus (AMARE) [1]: 3
damage to plant, Solanum nigrum (SOLNI) [2]: 3
damage to plant, Stellaria media (STEME) [3]: 5
damage to plant, Nasturtium officinale (NAAOF) [4]: 5

CCC(=O)Oc1c(-c2ccc(F)cc2Cl)c(=O)n(C)c2nccnc12 [Compound C44]
damage to plant, Amaranthus retroflexus (AMARE) [1]: 8
damage to plant, Solanum nigrum (SOLNI) [2]: 2
damage to plant, Stellaria media (STEME) [3]: 6
damage to plant, Nasturtium officinale (NAAOF) [4]: 4

CCn1c(=O)c(-c2cccc(Cl)c2Cl)c(OC(=O)C(C)C)c2nccnc21 [Compound C45]
damage to plant, Amaranthus retroflexus (AMARE) [1]: 8
damage to plant, Solanum nigrum (SOLNI) [2]: 6
damage to plant, Stellaria media (STEME) [3]: 9
damage to plant, Nasturtium officinale (NAAOF) [4]: 8

CC(C)Cn1c(=O)c(-c2ccccc2OC(F)(F)F)c(OC(=O)C(C)(C)C)c2nccnc21 [Compound C46]
damage to plant, Amaranthus retroflexus (AMARE) [1]: 0
damage to plant, Solanum nigrum (SOLNI) [2]: 4
damage to plant, Stellaria media (STEME) [3]: 1
damage to plant, Nasturtium officinale (NAAOF) [4]: 1

CC(C)(C)C(=O)Oc1c(-c2ccccc2OC(F)(F)F)c(=O)n(CC2CC2)c2nccnc12 [Compound C47]
damage to plant, Amaranthus retroflexus (AMARE) [1]: 4
damage to plant, Solanum nigrum (SOLNI) [2]: 3
damage to plant, Stellaria media (STEME) [3]: 0
damage to plant, Nasturtium officinale (NAAOF) [4]: 1

CC(C)Cn1c(=O)c(-c2c(F)ccc(F)c2Cl)c(OC(=O)C(C)(C)C)c2nccnc21 [Compound C48]
damage to plant, Amaranthus retroflexus (AMARE) [1]: 0
damage to plant, Solanum nigrum (SOLNI) [2]: 1
damage to plant, Stellaria media (STEME) [3]: 1
damage to plant, Nasturtium officinale (NAAOF) [4]: 0

CC(C)(C)C(=O)Oc1c(-c2c(F)ccc(F)c2Cl)c(=O)n(CC2CC2)c2nccnc12 [Compound C49]
damage to plant, Amaranthus retroflexus (AMARE) [1]: 3
damage to plant, Solanum nigrum (SOLNI) [2]: 0
damage to plant, Stellaria media (STEME) [3]: 3
damage to plant, Nasturtium officinale (NAAOF) [4]: 0

Cn1c(=O)c(-c2ccccc2Cl)c(OC(=O)C(C)(C)C)c2nccnc21 [Compound C50]
damage to plant, Amaranthus retroflexus (AMARE) [1]: 4
damage to plant, Solanum nigrum (SOLNI) [2]: 4
damage to plant, Stellaria media (STEME) [3]: 7
damage to plant, Nasturtium officinale (NAAOF) [4]: 7

Cn1c(=O)c(-c2c(F)ccc(F)c2Cl)c(OC(=O)c2ccc([N+](=O)[O-])cc2)c2nccnc21 [Compound C51]
damage to plant, Amaranthus retroflexus (AMARE) [1]: 7
damage to plant, Solanum nigrum (SOLNI) [2]: 0
damage to plant, Stellaria media (STEME) [3]: 7
damage to plant, Nasturtium officinale (NAAOF) [4]: 7

Cn1c(=O)c(-c2ccc3ccccc3c2)c(OC(=O)C(C)(C)C)c2nccnc21 [Compound C52]
damage to plant, Amaranthus retroflexus (AMARE) [1]: 0
damage to plant, Solanum nigrum (SOLNI) [2]: 0
damage to plant, Stellaria media (STEME) [3]: 3
damage to plant, Nasturtium officinale (NAAOF) [4]: 3

Cn1c(=O)c(-c2c(F)ccc(F)c2Cl)c(OC(=O)CC(C)(C)C)c2nccnc21 [Compound C53]
damage to plant, Amaranthus retroflexus (AMARE) [1]: 7
damage to plant, Solanum nigrum (SOLNI) [2]: 3
damage to plant, Stellaria media (STEME) [3]: 5
damage to plant, Nasturtium officinale (NAAOF) [4]: 7

Cn1c(=O)c(-c2c(F)ccc(F)c2F)c(OC(=O)C(C)(C)C)c2nccnc21 [Compound C55]
damage to plant, Amaranthus retroflexus (AMARE) [1]: 4
damage to plant, Solanum nigrum (SOLNI) [2]: 0
damage to plant, Stellaria media (STEME) [3]: 4
damage to plant, Nasturtium officinale (NAAOF) [4]: 0

CC(C)C(=O)c1c(-c2c(Cl)cccc2Cl)c(=O)n(C)c2nccnc12 [Compound C56]
damage to plant, Amaranthus retroflexus (AMARE) [1]: 8
damage to plant, Solanum nigrum (SOLNI) [2]: 0
damage to plant, Stellaria media (STEME) [3]: 7
damage to plant, Nasturtium officinale (NAAOF) [4]: 7

CCn1c(=O)c(-c2c(F)ccc(F)c2F)c(OC(=O)C(C)C)c2nccnc21 [Compound C57]
damage to plant, Amaranthus retroflexus (AMARE) [1]: 5
damage to plant, Solanum nigrum (SOLNI) [2]: 2
damage to plant, Stellaria media (STEME) [3]: 7
damage to plant, Nasturtium officinale (NAAOF) [4]: 6

CC(C)C(=O)Oc1c(-c2c(F)ccc(F)c2F)c(=O)n(C)c2nccnc12 [Compound C58]
damage to plant, Amaranthus retroflexus (AMARE) [1]: 6
damage to plant, Solanum nigrum (SOLNI) [2]: 0
damage to plant, Stellaria media (STEME) [3]: 8
damage to plant, Nasturtium officinale (NAAOF) [4]: 7

CCn1c(=O)c(-c2c(F)ccc(F)c2F)c(OC(=O)C(C)(C)C)c2nccnc21 [Compound C59]
damage to plant, Amaranthus retroflexus (AMARE) [1]: 6
damage to plant, Solanum nigrum (SOLNI) [2]: 0
damage to plant, Stellaria media (STEME) [3]: 7
damage to plant, Nasturtium officinale (NAAOF) [4]: 7

CC(C)C(=O)Oc1c(-c2c(F)ccc(F)c2Cl)c(=O)n(CC2CC2)c2nccnc12 [Compound C60]
damage to plant, Amaranthus retroflexus (AMARE) [1]: 7
damage to plant, Solanum nigrum (SOLNI) [2]: 7
damage to plant, Stellaria media (STEME) [3]: 5
damage to plant, Nasturtium officinale (NAAOF) [4]: 8

Cn1c(=O)c(-c2ccc(Cl)cc2Cl)c(OC(=O)C(C)(C)C)c2nccnc21 [Compound C61]
damage to plant, Amaranthus retroflexus (AMARE) [1]: 8
damage to plant, Solanum nigrum (SOLNI) [2]: 2
damage to plant, Stellaria media (STEME) [3]: 8
damage to plant, Nasturtium officinale (NAAOF) [4]: 8
